# Laboratory results: ChEMBL document CHEMBL1148520, “5-(Dimethoxymethyl)-2'-deoxyuridine: a novel gem diether nucleoside with anti-orthopoxvirus activity” (J Med Chem, 2006)
# System: Vaccinia virus
# Test: Antiviral activity against vaccinia virus Copenhagen measured as cytopathogenicity in HFF cells
# Assay type: functional, organism-based
# Conditions: Orthopoxvirus vaccinia
row,SMILES,EC50
1,CCOC(OCC)c1cn(C2C[C@H](OC(C)=O)[C@@H](COC(C)=O)O2)c(=O)[nH]c1=O (some centres not stated),38 µM
2,COC(OC)c1cnc(O)nc1O,> 300 µM
3,CC(=O)OC[C@H]1OC(n2cc(C3OCCCO3)c(=O)[nH]c2=O)C[C@@H]1OC(C)=O (some centres not stated),> 300 µM
4,CC(=O)OC[C@H]1OC(n2cc(C=O)c(=O)[nH]c2=O)C[C@@H]1OC(C)=O (some centres not stated),> 300 µM
5,COC(OC)c1cn(C2C[C@H](OC(C)=O)[C@@H](COC(C)=O)O2)c(=O)[nH]c1=O (some centres not stated),296 µM
6,COC(OC)c1cn(C2C[C@H](O)[C@@H](CO)O2)c(=O)[nH]c1=O (some centres not stated),8.4 µM
7,O=Cc1cn([C@H]2C[C@H](O)[C@@H](CO)O2)c(=O)[nH]c1=O,> 300 µM
8,CC(=O)OC[C@H]1OC(n2cc(C3OCCO3)c(=O)[nH]c2=O)C[C@@H]1OC(C)=O (some centres not stated),> 300 µM
9,CCOC(OCC)c1cn(C2C[C@H](O)[C@@H](CO)O2)c(=O)[nH]c1=O (some centres not stated),> 60 µM
10,"O=c1[nH]c(=O)n(C2CC(O)[C@@H](CO)O2)cc1C1OCCO1 (single isomer, unassigned)",> 300 µM
11,"O=c1[nH]c(=O)n(C2CC(O)[C@@H](CO)O2)cc1C1OCCCO1 (single isomer, unassigned)",> 300 µM
12,Nc1ccn(C[C@@H](CO)OCP(=O)(O)O)c(=O)n1 [CIDOFOVIR],6.9 µM
